The values that follow come from patent publication US9242984B2, “Pyrazolyl derivatives as Syk inhibitors” (Merck Sharp & Dohme Corp., priority 2012, dated 2016).

Molecules are shown by their SMILES. A value given as a limit tells only on which side of the number the result lay.

This assay deals with T1, recombinant human Syk (GST-hSyk fusion protein) (Homo sapiens, UniProt P43405).
T1 construct: purchased Carna Biosciences 08-176
Nature of the assay: Homogeneous Time-Resolved Fluorescence (HTRF) assay for the recombinant human Syk enzyme. The settings on record: IC50 class; 10-dose titration, 25 μM ATP; read-out: rhSYK Activity. The assay is classed as biochemical. The procedure, abridged:
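IC50 came from a four-parameter fit over ten doses, 10 μM to 0.508 nM, with HTRF read-out (Eu-anti-pTyr antibody, SA-APC, EDTA stop, 30 min). The enzyme, 5 pM GST-hSyk, met compound for 10 min, then phosphorylated 250 nM biotin-peptide with 25 μM ATP and 5 mM Mg for 45 min at room temperature, pH 7.5.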
Regarding `COc1nc(Nc2cc(C)cc(-c3cnn(CC4CNC(=O)O4)c3)c2)ncc1Cl` (stereo not shown) [Example 2.28, 5-[(4-{3-[(5-chloro-4-methoxypyrimidin-2-yl)amino]-5-methylphenyl}-1H-pyrazol-1-yl)methyl]-1,3-oxazolidin-2-one], the IC50 is at most 100 nM.

For the compound `Cc1cc(Nc2nccc(C(C)C)n2)cc(-c2cnn(CC3CNC(=O)O3)c2)c1` (stereo not shown) [Example 2.29, 5-{[4-(3-methyl-5-{[4-(1-methylethyl)pyrimidin-2-yl]amino}phenyl)-1H-pyrazol-1-yl]methyl}-1,3-oxazolidin-2-one], the IC50 was at most 100 nM.

Turning to `COc1nc(Nc2cc(C)cc(-c3cnn(CC4CNC(=O)O4)c3)c2)ncc1F` (stereo not shown) [Example 2.30, 5-[(4-{3-[(5-fluoro-4-methoxypyrimidin-2-yl)amino]-5-methylphenyl}-1H-pyrazol-1-yl)methyl]-1,3-oxazolidin-2-one], the IC50 was at most 100 nM.

Take `Cc1cc(Nc2nccc(C)n2)cc(-c2cnn(CC3CNC(=O)O3)c2)c1` (stereo not shown) [Example 2.31, 5-[(4-{3-methyl-5-[(4-methylpyrimidin-2-yl)amino]phenyl}-1H-pyrazol-1-yl)methyl]-1,3-oxazolidin-2-one]: the IC50 is at most 100 nM.

Regarding `Cc1cc(Nc2ncc(Cl)c(C)n2)cc(-c2cnn(CC3CNC(=O)O3)c2)c1` (stereo not shown) [Example 2.32, 5-[(4-{3-[(5-chloro-4-methylpyrimidin-2-yl)amino]-5-methylphenyl}-1H-pyrazol-1-yl)methyl]-1,3-oxazolidin-2-one], the IC50 is at most 100 nM.

On to `Cc1cc(Nc2nccc(C3CC3)n2)cc(-c2cnn(CC3CNC(=O)O3)c2)c1` (stereo not shown) [Example 2.33, 5-[(4-{3-[(4-cyclopropylpyrimidin-2-yl)amino]-5-methylphenyl}-1H-pyrazol-1-yl)methyl]-1,3-oxazolidin-2-one], for which the IC50 is at most 100 nM.

As to `O=C1NCC(Cn2cc(-c3cccc(Nc4nccc(C(F)(F)F)n4)c3)cn2)O1` (stereo not shown) [Example 2.34, 5-{[4-(3-{[4-(trifluoromethyl)pyrimidin-2-yl]amino}phenyl)-1H-pyrazol-1-yl]methyl}-1,3-oxazolidin-2-one], the IC50 was at most 100 nM.

With `Cc1cc(Nc2nccc(C(F)(F)F)n2)cc(-c2cnn3ncccc23)c1` [Example 2.35, N-(3-methyl-5-pyrazolo[1,5-b]pyridazin-3-ylphenyl)-4-(trifluoromethyl)pyrimidin-2-amine], the IC50 was at most 100 nM.

As to `COc1ccc2c(-c3cc(C)cc(Nc4nccc(C(F)(F)F)n4)c3)cnn2n1` [Example 2.36, N-[3-(6-methoxypyrazolo[1,5-b]pyridazin-3-yl)-5-methylphenyl]-4-(trifluoromethyl)pyrimidin-2-amine], the IC50 is at most 100 nM.

For `Cc1cc(Nc2nccc(C(F)(F)F)n2)cc(-c2cnn3cccnc23)c1` [Example 2.37, N-(3-methyl-5-pyrazolo[1,5-a]pyrimidin-3-ylphenyl)-4-(trifluoromethyl)pyrimidin-2-amine], the IC50 lay in the range of 100 to 1000 nM.

Regarding `Cc1cc(Nc2nccc(C(F)(F)F)n2)cc(-c2c(C)n[nH]c2C)c1` [Example 2.38, N-[3-(3,5-dimethyl-1H-pyrazol-4-yl)-5-methylphenyl]-4-(trifluoromethyl)pyrimidin-2-amine], the IC50 lay within 100 to 1000 nM.

`Cc1cc(Nc2nccc(C(F)(F)F)n2)cc(-c2c[nH]nc2C)c1` [Example 2.39, N-[3-methyl-5-(3-methyl-1H-pyrazol-4-yl)phenyl]-4-(trifluoromethyl)pyrimidin-2-amine]: the IC50 lay within 100 to 1000 nM.

As to `Cc1cc(Nc2nccc(C3CC3)n2)cc(-c2cnn(CCC(=O)O)c2)c1` [Example 2.40, 3-(4-{3-[(4-cyclopropylpyrimidin-2-yl)amino]-5-methylphenyl}-1H-pyrazol-1-yl)propanoic acid], the IC50 is at most 100 nM.

`CCOC(=O)CCn1cc(-c2cc(C)cc(Nc3nccc(C4CC4)n3)c2)cn1` [Example 2.41, ethyl 3-(4-{3-[(4-cyclopropylpyrimidin-2-yl)amino]-5-methylphenyl}-1H-pyrazol-1-yl)propanoate]: the IC50 was under 1000 nM.

For `CCOC(=O)CCn1cc(-c2cc(C)cc(Nc3nccc(C)n3)c2)cn1` [Example 2.42, ethyl 3-(4-{3-methyl-5-[(4-methylpyrimidin-2-yl)amino]phenyl}-1H-pyrazol-1-yl)propanoate], the IC50 was at most 100 nM.

With `CCOC(=O)CCn1cc(-c2cc(C)cc(Nc3nccc(C(F)(F)F)n3)c2)cn1` [Example 2.43, ethyl 3-[4-(3-methyl-5-{[4-(trifluoromethyl)pyrimidin-2-yl]amino}phenyl)-1H-pyrazol-1-yl]propanoate], the IC50 is at most 100 nM.

For `Cc1cc(Nc2nccc(C)n2)cc(-c2cnn(CCC(=O)O)c2)c1` [Example 2.44, 3-(4-{3-methyl-5-[(4-methylpyrimidin-2-yl)amino]phenyl}-1H-pyrazol-1-yl)propanoic acid], the IC50 is at most 100 nM.

Regarding `Cc1cc(Nc2nccc(C(F)(F)F)n2)cc(-c2cnn(CC3CNC(=O)O3)c2)c1` (stereo not shown) [Example 2.45, 5-{[4-(3-methyl-5-{[4-(trifluoromethyl)-pyrimidin-2-yl]amino}phenyl)-1H-pyrazol-1-yl]methyl}-1,3-oxazolidin-2-one], the IC50 was at most 100 nM.

In the case of `Cc1cc(Nc2nccc(C(F)(F)F)n2)cc(-c2ccn(C)n2)c1` [Example 2.46, N-[3-methyl-5-(1-methyl-1H-pyrazol-3-yl)phenyl]-4-(trifluoromethyl)-pyrimidin-2-amine], the IC50 was at most 100 nM.

`Cc1cc(Nc2nccc(C(F)(F)F)n2)cc(-c2n[nH]c3ccccc23)c1` [Example 2.47, N-[3-(1H-indazol-3-yl)-5-methylphenyl]-4-(trifluoromethyl)-pyrimidin-2-amine]: the IC50 fell in the range of 100 to 1000 nM.

For the compound `Cc1cc(Nc2ncccn2)cc(-c2cnn(Cc3ccc(C(N)=O)cc3)c2)c1` [Example 2.57, 4-({4-[3-methyl-5-(pyrimidin-2-ylamino)phenyl]-1H-pyrazol-1-yl}methyl)benzamide], the IC50 is at most 100 nM.

Regarding `Cc1cc(Nc2ncccn2)cc(-c2cnn(Cc3ccc(O)cc3)c2)c1` [Example 2.58, 4-({4-[3-methyl-5-(pyrimidin-2-ylamino)phenyl]-1H-pyrazol-1-yl}methyl)phenol], the IC50 is at most 100 nM.

For the compound `Cc1cc(Nc2nccc(C(F)(F)F)n2)cc(-c2cnn(C3CCC(C(=O)O)C(C)(C)C3)c2)c1` (stereo not shown) [Example 2.59, 2,2-dimethyl-4-[4-(3-methyl-5-{[4-(trifluoromethyl)pyrimidin-2-yl]amino}phenyl)-1H-pyrazol-1-yl]cyclohexanecarboxylic acid], the IC50 is at most 100 nM.

On to `Cc1cc(Nc2nccc(C(F)F)n2)cc(-c2cnn(C3CCC(C(=O)O)CC3)c2)c1` (stereo not shown) [Example 2.60, 4-[4-(3-{[4-(difluoromethyl)pyrimidin-2-yl]amino}-5-methylphenyl)-1H-pyrazol-1-yl]cyclohexanecarboxylic acid], for which the IC50 is at most 100 nM.

For `Cc1cc(Nc2nccc(C(F)F)n2)cc(-c2cnn([C@H]3CC[C@H](C(=O)O)CC3)c2)c1` [Example 2.61, trans-4-[4-(3-{[4-(difluoromethyl)pyrimidin-2-yl]amino}-5-methylphenyl)-1H-pyrazol-1-yl]cyclohexanecarboxylic acid], the IC50 was at most 100 nM.

For `Cc1cc(Nc2nccc(C(F)F)n2)cc(-c2cnn(CC3CNC(=O)O3)c2)c1` (stereo not shown) [Example 2.63, 5-{[4-(3-{[4-(difluoromethyl)pyrimidin-2-yl]amino}-5-methylphenyl)-1H-pyrazol-1-yl]methyl}-1,3-oxazolidin-2-one], the IC50 is at most 100 nM.

As for `Cc1cc(Nc2nccc(C(F)F)n2)cc(-c2cnn(CC3CNC(=O)O3)c2)c1` (stereo not shown) [Example 2.64, 5-{[4-(3-{[4-(difluoromethyl)pyrimidin-2-yl]amino}-5-methylphenyl)-1H-pyrazol-1-yl]methyl}-1,3-oxazolidin-2-one], the IC50 was at most 100 nM.

Regarding `O=C1NCC(Cn2cc(-c3cccc(Nc4nccc(C(F)F)n4)c3)cn2)O1` (stereo not shown) [Example 2.65, 5-{[4-(3-{[4-(difluoromethyl)pyrimidin-2-yl]amino}phenyl)-1H-pyrazol-1-yl]methyl}-1,3-oxazolidin-2-one], the IC50 was at most 100 nM.

Take `O=C1NCC(Cn2cc(-c3cccc(Nc4nccc(C(F)F)n4)c3)cn2)O1` (stereo not shown) [Example 2.66, 5-{[4-(3-{[4-(difluoromethyl)pyrimidin-2-yl]amino}phenyl)-1H-pyrazol-1-yl]methyl}-1,3-oxazolidin-2-one]: the IC50 is at most 100 nM.

Consider `Cc1cc(Nc2nccc(C(F)F)n2)cc(-c2cnn(C(C)C3CNC(=O)C3)c2)c1` (stereo not shown) [Example 2.67, 4-{1-[4-(3-{[4-(difluoromethyl)pyrimidin-2-yl]amino}-5-methylphenyl)-1H-pyrazol-1-yl]ethyl}pyrrolidin-2-one], for which the IC50 is at most 100 nM.

`Cc1cc(Nc2nccc(C(F)F)n2)cc(-c2cnn(C(C)C3CNC(=O)C3)c2)c1` (stereo not shown) [Example 2.68, 4-{1-[4-(3-{[4-(difluoromethyl)pyrimidin-2-yl]amino}-5-methylphenyl)-1H-pyrazol-1-yl]ethyl}pyrrolidin-2-one]: the IC50 is at most 100 nM.

For the compound `Cc1cc(Nc2nccc(C(F)F)n2)cc(-c2cnn(C(C)C3CNC(=O)C3)c2)c1` (stereo not shown) [Example 2.69, 4-{1-[4-(3-{[4-(difluoromethyl)pyrimidin-2-yl]amino}-5-methylphenyl)-1H-pyrazol-1-yl]ethyl}pyrrolidin-2-one], the IC50 was at most 100 nM.

As to `Cc1cc(Nc2nccc(C(F)F)n2)cc(-c2cnn(C(C)C3CNC(=O)C3)c2)c1` (stereo not shown) [Example 2.70, 4-{1-[4-(3-{[4-(difluoromethyl)pyrimidin-2-yl]amino}-5-methylphenyl)-1H-pyrazol-1-yl]ethyl}pyrrolidin-2-one], the IC50 is at most 100 nM.

For the compound `Cc1cc(Nc2nccc(C(F)F)n2)cc(-c2cnn(CC3CC(=O)NC3=O)c2)c1` (stereo not shown) [Example 2.71, 3-{[4-(3-{[4-(difluoromethyl)pyrimidin-2-yl]amino}-5-methylphenyl)-1H-pyrazol-1-yl]methyl}pyrrolidine-2,5-dione], the IC50 was at most 100 nM.
